The values that follow come from US20250195511A1, “INDAZOLE DERIVATIVES USEFUL AS INHIBITORS OF NOD-LIKE RECEPTOR PROTEIN 3” (Merck Sharp & Dohme LLC, priority 2023, published 2025).

The subject of one assay is NLRP3 inflammasome. In words: NLRP3 inflammasome activation: ASC-SPECK formation in gramicidin-stimulated THP-1 cells. The assay is classed as cell-based. As to conditions: Homo sapiens, THP-1, inhibition of ASC SPECK formation; PMA-treated human monocytic THP-1 cells, compound 1 h before 12.5 μg/ml gramicidin, 3-hour treatment. The method, boiled down: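 Undifferentiated human THP-1 cells primed overnight with 10 ng/ml PMA, then given compounds 1 h before 12.5 μg/ml gramicidin for 3 h at 37° C in RPMI with 0.01% BSA. Fixed cells immunostained for ASC with DRAQ5 nuclear counterstain; DRAQ5-positive cells with ASC specks counted by high-content imaging; EC50 from curve fitting.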
Regarding `Cc1cc(Cl)cc(O)c1-c1cnc2cn([C@H]3C[C@H](F)C3)nc2n1` [Example 55, 5-chloro-2-(2-((1R,3R)-3-fluorocyclobutyl)-2H-pyrazolo[3,4-b]pyrazin-6-yl)-3-methylphenol], the EC50 was 27 nM.

Regarding `Cc1cc(C(F)(F)F)cc(O)c1-c1cnc2cn(C3COC4(C)CC3C4)nc2n1` (racemic) [Example 19, (R and S)-3-methyl-2-(2-(1-methyl-2-oxabicyclo[3.1.1]heptan-4-yl)-2H-pyrazolo[3,4-b]pyrazin-6-yl)-5-(trifluoromethyl)phenol], the EC50 was 876 nM.

For the molecule `Cc1cc(C(F)(F)F)cc(O)c1-c1cnc2cn([C@]34CCC[C@H]3OCC4)nc2n1` (mixture of isomers) [Example 21, 2-(2-((3aS,6aR and 3aR,6aS)-hexahydro-3aH-cyclopenta[b]furan-3a-yl)-2H-pyrazolo[3,4-b]pyrazin-6-yl)-3-methyl-5-(trifluoromethyl)phenol], the EC50 was found to be 814 nM.

Turning to `Cc1cc(C(F)(F)F)cc(O)c1-c1cnc2cn([C@@H]3CCS(=O)(=O)C3)nc2n1` [Example 30, 2-[2-[(3R)-1,1-dioxothiolan-3-yl]pyrazolo[3,4-b]pyrazin-6-yl]-3-methyl-5-(trifluoromethyl)phenol], the EC50 is 407 nM.

On to `Cc1cc(C(F)(F)F)cc(O)c1-c1cnc2cn(C3CCOCC3(F)F)nc2n1` (single isomer, unassigned) [Example 105, (R or S)-2-(2-(3,3-difluorotetrahydro-2H-pyran-4-yl)-2H-pyrazolo[3,4-b]pyrazin-6-yl)-3-methyl-5-(trifluoromethyl)phenol], for which the EC50 worked out at 433 nM.

As for `Cc1cc(C(F)(F)F)cc(O)c1-c1cnc2cn(C34CCC(C3)C4)nc2n1` [Example 42, 2-[2-(1-bicyclo[2.1.1]hexanyl)pyrazolo[3,4-b]pyrazin-6-yl]-3-methyl-5-(trifluoromethyl)phenol], the EC50 worked out at 70 nM.

Consider `Cc1cc(C(F)(F)F)cc(O)c1-c1cnc2cn(C34CC(CC#N)(C3)C4)nc2n1` [Example 46, 2-[3-[6-[2-hydroxy-6-methyl-4-(trifluoromethyl)phenyl]pyrazolo[3,4-b]pyrazin-2-yl]-1-bicyclo[1.1.1]pentanyl]acetonitrile], for which the EC50 was determined as 213 nM.

For the molecule `Cc1cc(C(F)(F)F)cc(O)c1-c1cnc2cn(C3CCCOC34CCC4)nc2n1` (racemic) [Example 22, (S and R)-2-(2-(5-oxaspiro[3.5]nonan-9-yl)-2H-pyrazolo[3,4-b]pyrazin-6-yl)-3-methyl-5-(trifluoromethyl)phenol], the half-maximal effective concentration (EC50) was determined as 202 nM.

With `Cc1cc(C(F)(F)F)cc(O)c1-c1cnc2cn(C34COC(C3)C4)nc2n1` [Example 17, 2-(2-(2-oxabicyclo[2.1.1]hexan-4-yl)-2H-pyrazolo[3,4-b]pyrazin-6-yl)-3-methyl-5-(trifluoromethyl)phenol], the 50% effective concentration (EC50) turned out to be 55 nM.

In the case of `Cc1cc(C(F)(F)F)cc(O)c1-c1cnc2cn(C3CCOC(C)(C)C3)nc2n1` (single isomer, unassigned) [Example 96, (S or R)-2-(2-(2,2-dimethyltetrahydro-2H-pyran-4-yl)-2H-pyrazolo[3,4-b]pyrazin-6-yl)-3-methyl-5-(trifluoromethyl)phenol], the EC50 was 235 nM.

As for `Cc1cc(C(F)(F)F)cc(O)c1-c1cnc2cn(C34CC(F)(C3)C4)nc2n1` [Example 48, 2-[2-(3-fluoro-1-bicyclo[1.1.1]pentanyl)pyrazolo[3,4-b]pyrazin-6-yl]-3-methyl-5-(trifluoromethyl)phenol], the EC50 amounted to 65 nM.

For the molecule `COCC12CC(n3cc4ncc(-c5c(C)cc(C(F)(F)F)cc5O)nc4n3)(C1)C2` [Example 37, 2-[2-[3-(methoxymethyl)-1-bicyclo[1.1.1]pentanyl]pyrazolo[3,4-b]pyrazin-6-yl]-3-methyl-5-(trifluoromethyl)phenol], the 50% effective concentration (EC50) came out at 220 nM.

Turning to `Cc1cc(C(F)(F)F)cc(O)c1-c1cnc2cn([C@H]3CCOC[C@@H]3C)nc2n1` (single isomer, unassigned) [Example 87, 3-methyl-2-(2-((3R,4S or 3S,4R)-3-methyltetrahydro-2H-pyran-4-yl)-2H-pyrazolo[3,4-b]pyrazin-6-yl)-5-(trifluoromethyl)phenol], the EC50 worked out at 564 nM.

Consider `COC12CC(n3cc4ncc(-c5c(C)cc(C(F)(F)F)cc5O)nc4n3)(C1)C2` [Example 38, 2-[2-(3-methoxy-1-bicyclo[1.1.1]pentanyl)pyrazolo[3,4-b]pyrazin-6-yl]-3-methyl-5-(trifluoromethyl)phenol], for which the EC50 turned out to be 141 nM.

On to `Cc1cc(C(F)(F)F)cc(O)c1-c1cnc2cn(C[C@@H]3CCN(C)C3)nc2n1` [Example 6, (R)-3-methyl-2-(2-((1-methylpyrrolidin-3-yl)methyl)-2H-pyrazolo[3,4-b]pyrazin-6-yl)-5-(trifluoromethyl)phenol], for which the EC50 worked out at 35 nM.

The same assay, now with this note: inhibition of ASC SPECK formation; PMA-treated human monocytic THP-1 cells, compound 1 h before 12.5 μg/ml gramicidin, 3-hour treatment.
Regarding `Cc1cc(C(F)(F)F)cc(O)c1-c1cnc2cn(CC3CC(=O)N(C4CC4)C3)nc2n1` (single isomer, unassigned) [Example 62, (R or S)-1-cyclopropyl-4-((6-(2-hydroxy-6-methyl-4-(trifluoromethyl)phenyl)-2H-pyrazolo[3,4-b]pyrazin-2-yl)methyl)pyrrolidin-2-one], the EC50 was 291 nM.

As for `Cc1cc(C(F)(F)F)cc(O)c1-c1cnc2cn(C3CCOCC3(C)C)nc2n1` (single isomer, unassigned) [Example 97, (R or S)-2-(2-(3,3-dimethyltetrahydro-2H-pyran-4-yl)-2H-pyrazolo[3,4-b]pyrazin-6-yl)-3-methyl-5-(trifluoromethyl)phenol], the EC50 was 683 nM.

Turning to `Cc1cc(C(F)(F)F)cc(O)c1-c1cnc2c(C)n(C3CCC(=O)NC3)nc2n1` (single isomer, unassigned) [Example 109, (S or R)-5-(6-(2-hydroxy-6-methyl-4-(trifluoromethyl)phenyl)-3-methyl-2H-pyrazolo[3,4-b]pyrazin-2-yl)piperidin-2-one], the EC50 was determined as 279 nM.

With `Cc1cc(C(F)(F)F)cc(O)c1-c1cnc2cn([C@H]3CCO[C@@H](C)C3)nc2n1` (single isomer, unassigned) [Example 94, 3-methyl-2-(2-((2R,4R or 2S,4S)-2-methyltetrahydro-2H-pyran-4-yl)-2H-pyrazolo[3,4-b]pyrazin-6-yl)-5-(trifluoromethyl)phenol], the EC50 was 92 nM.

Turning to `Cc1cc(C(F)(F)F)cc(O)c1-c1cnc2cn(CC3CC(=O)N(C(C)C)C3)nc2n1` (single isomer, unassigned) [Example 80, (R or S)-4-((6-(2-hydroxy-6-methyl-4-(trifluoromethyl)phenyl)-2H-pyrazolo[3,4-b]pyrazin-2-yl)methyl)-1-isopropylpyrrolidin-2-one], the EC50 came out at 8 nM.

Consider `Cc1cc(C(F)(F)F)cc(O)c1-c1cnc2cn(C3CCOCC3(C)C)nc2n1` (single isomer, unassigned) [Example 98, (S or R)-2-(2-(3,3-dimethyltetrahydro-2H-pyran-4-yl)-2H-pyrazolo[3,4-b]pyrazin-6-yl)-3-methyl-5-(trifluoromethyl)phenol], for which the EC50 is 237 nM.

For `Cc1nc2cn(C3CCC(=O)N(C)C3)nc2nc1-c1ccc(C(F)(F)F)cc1O` (single isomer, unassigned) [Example 112, (S or R)-5-(6-(2-hydroxy-4-(trifluoromethyl)phenyl)-5-methyl-2H-pyrazolo[3,4-b]pyrazin-2-yl)-1-methylpiperidin-2-one], the EC50 came to 605 nM.

For `Cc1cc(C(F)(F)F)cc(O)c1-c1cnc2cn([C@@H]3CCOC[C@@H]3C)nc2n1` (single isomer, unassigned) [Example 85, 3-methyl-2-(2-((3R,4R or 3S,4S)-3-methyltetrahydro-2H-pyran-4-yl)-2H-pyrazolo[3,4-b]pyrazin-6-yl)-5-(trifluoromethyl)phenol], the EC50 is 42 nM.

`Cc1cc(C(F)(F)F)cc(O)c1-c1cnc2c(C(C)O)n(C3CCC(=O)N(C(C)C)C3)nc2n1` (single isomer, unassigned) [Example 120, (S or R)-5-(6-(2-hydroxy-6-methyl-4-(trifluoromethyl)phenyl)-3-((R or S)-1-hydroxyethyl)-2H-pyrazolo[3,4-b]pyrazin-2-yl)-1-isopropylpiperidin-2-one]: the EC50 was 3880 nM.

As for `Cc1cc(C(F)(F)F)cc(O)c1-c1cnc2cn(C34CCOCC3C4)nc2n1` (single isomer, unassigned) [Example 91, 2-(2-((1R,6S or 1S,6R)-3-oxabicyclo[4.1.0]heptan-6-yl)-2H-pyrazolo[3,4-b]pyrazin-6-yl)-3-methyl-5-(trifluoromethyl)phenol], the EC50 was 60 nM.

`Cc1cc(C(F)(F)F)cc(O)c1-c1cnc2cn(CC3CC(=O)N(C)C3)nc2n1` (single isomer, unassigned) [Example 58, (R or S)-4-((6-(2-hydroxy-6-methyl-4-(trifluoromethyl)phenyl)-2H-pyrazolo[3,4-b]pyrazin-2-yl)methyl)-1-methylpyrrolidin-2-one]: the EC50 stood at 298 nM.

As to `Cc1cc(C(F)(F)F)cc(O)c1-c1cnc2cn(C3CCOCC34CC4)nc2n1` (single isomer, unassigned) [Example 99, (R or S)-2-(2-(5-oxaspiro[2.5]octan-8-yl)-2H-pyrazolo[3,4-b]pyrazin-6-yl)-3-methyl-5-(trifluoromethyl)phenol], the EC50 worked out at 580 nM.

Consider `Cc1cc(C(F)(F)F)cc(O)c1-c1cnc2cn([C@@H]3CCOC[C@@H]3C)nc2n1` (single isomer, unassigned) [Example 86, 3-methyl-2-(2-((3S,4S or 3R,4R)-3-methyltetrahydro-2H-pyran-4-yl)-2H-pyrazolo[3,4-b]pyrazin-6-yl)-5-(trifluoromethyl)phenol], for which the EC50 stood at 326 nM.
